Data from patent US20060089352A1, “Substituted thiazines as material protecting agents” (priority 2002, published 2006).

Assays:
Type in all cases: cell-based
Chaetomium globosum = assay: Minimum inhibitory concentration (MIC) on malt extract agar; conditions: 2 weeks incubation at 28° C., 60 to 70% relative atmospheric humidity
Description: (§1) The MIC was determined after 2 weeks of incubation at 28° C. and 60 to 70% relative atmospheric humidity. The MIC is the lowest concentration of active compound at which there is no colonization by the microbial species used; it is indicated in Table 2.

Aspergillus niger = assay: as above; conditions: 2 weeks incubation at 28° C., 60 to 70% relative atmospheric humidity
Description: as §1

Penicillium brevicaule = assay: as above; conditions: 2 weeks incubation at 28° C., 60 to 70% relative atmospheric humidity
Description: as §1

[1] = tested on: mold fungi (Alternaria tenuis, Aspergillus flavus, Aspergillus niger, Aspergillus ustus, Cindosporum herbarum, Paecilomyces variotii, Penicillium citrium …); assay: Test of dispersion coatings for resistance to mold; conditions: coatings according to recipe A containing 1.5% (based on solids) of compound; even after rinsing out and wind tunnel exposure; 2-3 weeks storage, 29±1° C., 80-90% rel. humidity
Description: To test dispersion coatings for resistance to mold, the following procedure was adopted:
The paint to be tested was applied to both sides of a suitable base. To obtain results which are close to practice, some of the test specimens were rinsed out with running water (24 h, 20° C.) before the test for mold resistance; others were treated with a current of warm fresh air (7 days, 40° C.).
The samples prepared in this way were then placed on an agar nutrient medium, and both samples and nutrient medium were contaminated with fungal spores. After 2-3 weeks storage (29±1° C., 80-90% rel. atmospheric humidity), the samples were compared.
The coating is considered to be permanently mold-resistant if the sample remains free from fungus or at most a slight border infestation can be detected.
For the contamination, fungal spores of the following mold fungi were used, which are known as paint destroyers or are frequently encountered on coatings: • Alternaria tenuis • Aspergillus flavus • Aspergillus niger • Aspergillus ustus • Cindosporum herbarum • Paecilomyces variotii • Penicillium citrium • Aureobasidium pullulans • Stachybotrys chartarum
Recipe A: Exterior dispersion paint based on Acroal 290 D (styrene acrylate)

Question: Which “Minimum inhibitory concentrations Chaetomium globosum” value (Chaetomium globosum) does the source give for `CC1(C)CN=C(Sc2cccc(F)c2)SC1` [Example 51] here?
Answer: <200 ppm

Question: What about the “Minimum inhibitory concentrations Aspergillus niger” value (Aspergillus niger) of the same compound?
Answer: 200 ppm

Question: What about the “Minimum inhibitory concentrations Penicillium brevicaule” value (Penicillium brevicaule) of the same compound?
Answer: <200 ppm

Question: Which results are given for `CC1(C)CN=C(Sc2cccs2)SC1` [Example 45]?
Answer: Minimum inhibitory concentrations Chaetomium globosum (Chaetomium globosum): <50 ppm; Minimum inhibitory concentrations Aspergillus niger (Aspergillus niger): <200 ppm; Minimum inhibitory concentrations Penicillium brevicaule (Penicillium brevicaule): <50 ppm

Question: `COc1ccc(SC2=NC3CCCCC3CS2)cc1` (centres unmarked) [Example 4] was tested. Which “Minimum inhibitory concentrations Chaetomium globosum” value (Chaetomium globosum) did it give?
Answer: 100 ppm

Question: With `CC1CN=C(Sc2ccccc2)SC1` (centres unmarked) [Example 11] as the compound, how does the “Minimum inhibitory concentrations Chaetomium globosum” value (Chaetomium globosum) read?
Answer: <50 ppm

Question: And the “Minimum inhibitory concentrations Aspergillus niger” value (Aspergillus niger)?
Answer: <50 ppm

Question: And the “Minimum inhibitory concentrations Penicillium brevicaule” value (Penicillium brevicaule)?
Answer: <50 ppm

Question: Which results are given for `COc1ccc(SC2=NCC(C)CS2)cc1` (centres unmarked) [Example 1]?
Answer: Minimum inhibitory concentrations Chaetomium globosum (Chaetomium globosum): <100 ppm; Minimum inhibitory concentrations Aspergillus niger (Aspergillus niger): <200 ppm; Minimum inhibitory concentrations Penicillium brevicaule (Penicillium brevicaule): <100 ppm

Question: For `CC1(C)CCSC(Sc2ccc(Cl)cc2)=N1` [Example 61], which “Minimum inhibitory concentrations Chaetomium globosum” value (Chaetomium globosum) is on record?
Answer: 200 ppm

Question: With `COc1cccc(SC2=NCCC(C)S2)c1` (centres unmarked) [Example 67] as the compound, how does the “Minimum inhibitory concentrations Chaetomium globosum” value (Chaetomium globosum) read?
Answer: <100 ppm

Question: And the “Minimum inhibitory concentrations Aspergillus niger” value (Aspergillus niger)?
Answer: <200 ppm

Question: And the “Minimum inhibitory concentrations Penicillium brevicaule” value (Penicillium brevicaule)?
Answer: <100 ppm

Question: What does the source list for `c1csc(SC2=NC3CCCC3CS2)c1` (centres unmarked) [Example 79]?
Answer: Minimum inhibitory concentrations Chaetomium globosum (Chaetomium globosum): <100 ppm; Minimum inhibitory concentrations Penicillium brevicaule (Penicillium brevicaule): 100 ppm

Question: With `Cc1ccc(SC2=NC3CCCC3CS2)cc1` (centres unmarked) [Example 82] as the compound, how does the “Minimum inhibitory concentrations Chaetomium globosum” value (Chaetomium globosum) read?
Answer: 100 ppm

Question: What does the source list for `c1ccc(SC2=NC3CCCC3CS2)cc1` (centres unmarked) [Example 81]?
Answer: Minimum inhibitory concentrations Chaetomium globosum (Chaetomium globosum): <100 ppm; Minimum inhibitory concentrations Penicillium brevicaule (Penicillium brevicaule): 200 ppm

Question: With `COc1ccc(SC2=NCC(C)(C)CS2)cc1` [Example 47] as the compound, how does the “Mold resistance of coating” value [1] read?
Answer: mold resistant

Question: With `CC1CCN=C(Sc2ccccc2)S1` (centres unmarked) [Example 62] as the compound, how does the “Minimum inhibitory concentrations Chaetomium globosum” value (Chaetomium globosum) read?
Answer: <100 ppm

Question: And the “Minimum inhibitory concentrations Aspergillus niger” value (Aspergillus niger)?
Answer: <100 ppm

Question: What about the “Minimum inhibitory concentrations Penicillium brevicaule” value (Penicillium brevicaule) of the same compound?
Answer: <50 ppm

Question: How did the “Minimum inhibitory concentrations Chaetomium globosum” value (Chaetomium globosum) turn out when `CC1CN=C(Sc2ccc(Cl)cc2)SC1` (centres unmarked) [Example 6] was run?
Answer: 20 ppm

Question: What about the “Minimum inhibitory concentrations Aspergillus niger” value (Aspergillus niger) of the same compound?
Answer: 50 ppm

Question: What about the “Minimum inhibitory concentrations Penicillium brevicaule” value (Penicillium brevicaule) of the same compound?
Answer: 20 ppm
